For 58 compounds, IC50 results are on record in PubChem BioAssay AID588639 (Sanford-Burnham Center for Chemical Genomics, 2011).

Values joined by “and” are separate entries in the source; they are usually repeats but may differ in a detail not shown here. Equal entries are not always repeated. Active and inactive are the calls of the source. The rule behind the calls is not given here.

For this experiment, the target named is Alkaline phosphatase, tissue-nonspecific isozyme (Homo sapiens) (UniProt P05186). The experiment can be described thus: human TNAP enzyme inhibitors, SAR follow-up, selectivity assay for mouse IAP inhibitor project, biochemical, set 2 (AID 588639). Conditions: purified human TNAP enzyme activity, counter-screen for mouse IAP. In general terms: The purpose of a counterscreen is to sort out artefacts and off-target activity.
Chain of Alkaline phosphatase, tissue-nonspecific isozyme (Homo sapiens) (P05186 whole entry, looked up): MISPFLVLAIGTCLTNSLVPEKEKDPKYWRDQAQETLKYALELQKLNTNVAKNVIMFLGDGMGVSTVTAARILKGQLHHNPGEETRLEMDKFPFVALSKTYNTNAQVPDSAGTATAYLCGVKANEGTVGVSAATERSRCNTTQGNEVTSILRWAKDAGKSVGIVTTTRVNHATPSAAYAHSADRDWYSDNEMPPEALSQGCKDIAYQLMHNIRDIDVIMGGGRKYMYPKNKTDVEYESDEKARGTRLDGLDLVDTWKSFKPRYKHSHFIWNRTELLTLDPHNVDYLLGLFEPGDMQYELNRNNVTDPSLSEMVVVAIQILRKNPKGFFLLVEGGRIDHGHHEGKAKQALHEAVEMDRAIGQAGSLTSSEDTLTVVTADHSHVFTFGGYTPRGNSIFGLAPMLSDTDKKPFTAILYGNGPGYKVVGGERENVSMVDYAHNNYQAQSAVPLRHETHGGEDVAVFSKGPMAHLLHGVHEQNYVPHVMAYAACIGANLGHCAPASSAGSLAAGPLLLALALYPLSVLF
A word on the IC50: it is the midpoint of a concentration-inhibition curve. For the compound `CC(C)c1ccc(NC(=O)CCNS(=O)(=O)c2ccc3c(c2)oc(=O)n3C)cc1`, the IC50 is > 100 µM (inactive).

Consider `COc1ccccc1CNC(=O)CCCNS(=O)(=O)c1ccc2[nH]c(=O)oc2c1`, for which the IC50 is > 100 µM (inactive).

For `O=C(N/N=C/c1c(F)cccc1Cl)c1cc(O)c(O)c(O)c1`, the IC50 is > 100 µM (inactive).

As for `Cc1ccc(C)c(NS(=O)(=O)c2ccc3[nH]c(=O)oc3c2)c1`, the IC50 is > 100 µM (inactive).

On to `COc1ccc(CNC(=O)CCNS(=O)(=O)c2ccc3c(c2)CCC3)c(OC)c1`, for which the IC50 is > 100 µM (inactive).

For the compound `COc1cccc(CNC(=O)CCNS(=O)(=O)c2ccc3[nH]c(=O)oc3c2)c1`, the IC50 is > 100 µM (inactive).

Regarding `O=C(CCNS(=O)(=O)c1ccc2[nH]c(=O)oc2c1)NCc1ccccc1Cl`, the IC50 is > 100 µM (inactive).

Regarding `O=C(CCNS(=O)(=O)c1ccc2[nH]c(=O)oc2c1)NCc1cccc(Cl)c1`, the IC50 was > 100 µM (inactive).

For the compound `Cc1ccc(CNC(=O)CCNS(=O)(=O)c2ccc3[nH]c(=O)oc3c2)cc1`, the IC50 is > 100 µM (inactive).

`COc1ccccc1CNC(=O)CCNS(=O)(=O)c1ccc2[nH]c(=O)oc2c1`: the IC50 is > 100 µM (inactive).

For `O=C(NCc1ccccc1)C1CCCN(S(=O)(=O)c2ccc3[nH]c(=O)oc3c2)C1` (stereo not drawn), the IC50 is > 100 µM (inactive).

Consider `COc1cccc(/C=N/NC(=O)c2cc(O)c(O)c(O)c2)c1O`, for which the IC50 was > 100 µM (inactive).

Take `O=C(NCc1ccc2c(c1)OCO2)C1CCCN(S(=O)(=O)c2ccc3[nH]c(=O)oc3c2)C1` (stereo not drawn): the IC50 was > 100 µM (inactive).

For the compound `O=C(CCCNS(=O)(=O)c1ccc2[nH]c(=O)oc2c1)NCCc1ccc(O)cc1`, the IC50 is 74.6 µM.

Consider `O=C(N/N=C/c1cccc(Cl)c1Cl)c1cc(O)c(O)c(O)c1`, for which the IC50 was > 100 µM (inactive).

For `CC(C)Oc1ccc(CNC(=O)C2CCCN(S(=O)(=O)c3ccc4[nH]c(=O)oc4c3)C2)cc1` (stereo not drawn), the IC50 is > 100 µM (inactive).

Turning to `Cc1ccc(C)c(NC(=O)CCNS(=O)(=O)c2ccc3[nH]c(=O)oc3c2)c1`, the IC50 is > 100 µM (inactive).

Take `O=c1[nH]c2ccc(S(=O)(=O)Nc3ccc4c(c3)OCO4)cc2o1`: the IC50 is > 100 µM (inactive).

In the case of `O=C(CCNS(=O)(=O)c1ccc2[nH]c(=O)oc2c1)NCc1ccccc1`, the IC50 was > 100 µM (inactive).

Regarding `COc1ccc(CNC(=O)CCCNS(=O)(=O)c2ccc3[nH]c(=O)oc3c2)cc1OC`, the IC50 is > 100 µM (inactive).

Consider `O=C(N/N=C/c1c(F)cccc1F)c1ccc(O)cc1`, for which the IC50 was > 100 µM (inactive).

`COc1ccc(NC(=O)CCCNS(=O)(=O)c2ccc3[nH]c(=O)oc3c2)c(OC)c1`: the IC50 is > 100 µM (inactive).

Consider `CC(C)c1ccc(/C=N/NC(=O)c2cc(O)c(O)c(O)c2)cc1`, for which the IC50 is > 100 µM (inactive).

Consider `COc1cc(C(=O)N/N=C/c2c(F)cccc2Cl)cc(OC)c1OC`, for which the IC50 is > 100 µM (inactive).

Turning to `COc1cccc(C(=O)N/N=C/c2ccccc2F)c1`, the IC50 is > 100 µM (inactive).

For `Cc1ccc(NC(=O)CCNS(=O)(=O)c2ccc3c(c2)oc(=O)n3C)cc1C`, the IC50 was > 100 µM (inactive).

Take `COc1cccc(NC(=O)CCNS(=O)(=O)c2ccc3c(c2)oc(=O)n3C)c1`: the IC50 was > 100 µM (inactive).

Consider `COc1ccc(NC(=O)CCNS(=O)(=O)c2ccc3c(c2)CCC3)cc1OC`, for which the IC50 is > 100 µM (inactive).

On to `O=C(CCNS(=O)(=O)c1ccc2[nH]c(=O)oc2c1)NCc1ccc(F)cc1`, for which the IC50 was > 100 µM (inactive).

Turning to `COc1ccc(/C=N\NC(=O)c2cc(O)c(O)c(O)c2)cc1CN1CCN(c2ccc(F)cc2)CC1`, the IC50 was > 100 µM (inactive).

As for `COc1ccc(/C=N/NC(=O)c2cc(O)c(O)c(O)c2)c(OC)c1`, the IC50 is > 100 µM (inactive).

As for `Cc1ccc(C)c(NC(=O)C2CCCN(S(=O)(=O)c3ccc4c(c3)oc(=O)n4C)C2)c1` (stereo not drawn), the IC50 is > 100 µM (inactive).

Take `COc1ccc(CCNC(=O)CCCNS(=O)(=O)c2ccc3[nH]c(=O)oc3c2)cc1`: the IC50 is > 100 µM (inactive).

With `O=C(NCc1ccc(F)cc1)C1CCCN(S(=O)(=O)c2ccc3[nH]c(=O)oc3c2)C1` (stereo not drawn), the IC50 is > 100 µM (inactive).

Consider `CN(C)c1ccc(CNC(=O)C2CCCN(S(=O)(=O)c3ccc4[nH]c(=O)oc4c3)C2)cc1` (stereo not drawn), for which the IC50 is > 100 µM (inactive).

Take `COc1ccc(/C=N/NC(=O)c2cc(O)c(O)c(O)c2)cc1OC`: the IC50 is > 100 µM (inactive).

Take `COc1ccc(CNC(=O)C2CCCN(S(=O)(=O)c3ccc4[nH]c(=O)oc4c3)C2)cc1` (stereo not drawn): the IC50 was > 100 µM (inactive).

Turning to `COc1ccc(OC)c(NC(=O)C2CCCN(S(=O)(=O)c3ccc4c(c3)oc(=O)n4C)C2)c1` (stereo not drawn), the IC50 is > 100 µM (inactive).

Consider `N#Cc1cccc(NC(=O)CNS(=O)(=O)c2ccc3[nH]c(=O)oc3c2)c1`, for which the IC50 is > 100 µM (inactive).

Consider `O=C(NN=Cc1ccccc1F)c1ccc(O)cc1`, for which the IC50 is > 100 µM (inactive).

As for `O=C(N/N=C/c1ccc(Cl)c(Cl)c1)c1cc(O)c(O)c(O)c1`, the IC50 is > 100 µM (inactive).

`O=C(CCNS(=O)(=O)c1ccc2[nH]c(=O)oc2c1)NCc1ccc(O)c(O)c1`: the IC50 is > 100 µM (inactive).

Regarding `COc1cc(/C=N/NC(=O)c2cc(O)c(O)c(O)c2)ccc1O`, the IC50 is > 100 µM (inactive).

`CC(=NNC(=O)c1ccccc1OCCOc1ccccc1)c1ccccc1F`: the IC50 was > 100 µM (inactive).

Regarding `O=C(CCNS(=O)(=O)c1ccc2[nH]c(=O)oc2c1)Nc1ccc2c(c1)OCO2`, the IC50 is > 100 µM (inactive).

As to `O=C(N/N=C/c1ccccc1C(F)(F)F)c1cc(O)c(O)c(O)c1`, the IC50 is > 100 µM (inactive).

On to `O=C(CCS(=O)(=O)Nc1ccc2[nH]c(=O)oc2c1)NCc1cccc(Cl)c1`, for which the IC50 is > 100 µM (inactive).

Take `CCOc1ccc(CNC(=O)C2CCCN(S(=O)(=O)c3ccc4[nH]c(=O)oc4c3)C2)cc1OC` (stereo not drawn): the IC50 was > 100 µM (inactive).

As for `Cc1ccccc1CNC(=O)CCCNS(=O)(=O)c1ccc2[nH]c(=O)oc2c1`, the IC50 is > 100 µM (inactive).

For the compound `O=C(N/N=C/c1ccccc1F)c1ccc(O)cc1O`, the IC50 was > 100 µM (inactive).

On to `Cc1cc(NC(=O)CCNS(=O)(=O)c2ccc3[nH]c(=O)oc3c2)ccc1Br`, for which the IC50 was > 100 µM (inactive).

Turning to `O=C(CCNS(=O)(=O)c1ccc2c(c1)CCC2)NCCc1ccc2c(c1)OCO2`, the IC50 was > 100 µM (inactive).

Take `O=C(N/N=C/c1ccc(Br)cc1F)c1cc(O)ccc1O`: the IC50 was > 100 µM (inactive).

`COc1ccc(CNC(=O)CCNS(=O)(=O)c2ccc3[nH]c(=O)oc3c2)c(OC)c1`: the IC50 was > 100 µM (inactive).

As for `CC(C)(C)c1ccc(/C=N/NC(=O)c2cc(O)c(O)c(O)c2)cc1`, the IC50 is > 100 µM (inactive).

Regarding `COc1ccc(NC(=O)CCNS(=O)(=O)c2ccc3[nH]c(=O)oc3c2)cc1OC`, the IC50 is 74.4 µM and 65.5 µM.

Regarding `O=C(CCNS(=O)(=O)c1ccc2[nH]c(=O)oc2c1)NCCc1ccc(O)cc1`, the IC50 was > 100 µM (inactive).

With `COc1ccc(CNC(=O)CCNS(=O)(=O)c2ccc3[nH]c(=O)oc3c2)cc1`, the IC50 was > 100 µM (inactive).
